# Data published in PubChem BioAssay (NCI).
#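 1) Cells in 96-well plates. 2) Compound, 48 h, 5 concentrations. 3) Linear interpolation between surrounding doses. 4) Unreached endpoint = highest concentration. Here, GI50 denotes the concentration required for 50% inhibition of growth. TGI is the concentration that stops growth completely.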
# What was measured:
# Assay in all cases: NCI tumour cell line growth inhibition, 48 h
# NCI-H460 lung = tested on: NCI-H460 lung
# LOX IMVI melanoma = tested on: LOX IMVI melanoma
# COLO 205 colon = tested on: COLO 205 colon
# RXF 393 renal = tested on: RXF 393 renal
# OVCAR-3 ovarian = tested on: OVCAR-3 ovarian
# SF-295 CNS = tested on: SF-295 CNS
# OVCAR-4 ovarian = tested on: OVCAR-4 ovarian
# UACC-257 melanoma = tested on: UACC-257 melanoma
# IGROV1 ovarian = tested on: IGROV1 ovarian
# DLD-1 colon = tested on: DLD-1 colon
SMILES,GI50 (NCI-H460 lung) [µM],TGI (NCI-H460 lung) [µM],GI50 (LOX IMVI melanoma) [µM],TGI (LOX IMVI melanoma) [µM],GI50 (COLO 205 colon) [µM],TGI (COLO 205 colon) [µM],GI50 (RXF 393 renal) [µM],TGI (RXF 393 renal) [µM],GI50 (OVCAR-3 ovarian) [µM],TGI (OVCAR-3 ovarian) [µM],GI50 (SF-295 CNS) [µM],TGI (SF-295 CNS) [µM],GI50 (OVCAR-4 ovarian) [µM],TGI (OVCAR-4 ovarian) [µM],GI50 (UACC-257 melanoma) [µM],TGI (UACC-257 melanoma) [µM],GI50 (IGROV1 ovarian) [µM],TGI (IGROV1 ovarian) [µM],TGI (DLD-1 colon) [µM]
COC(=O)CNC(=O)[C@@H](OC)[C@@H]1Cc2cc3cc(OC4CC(OC5CC(O)C(O)C(C)O5)C(O)C(C)O4)c(C)c(O)c3c(O)c2C(=O)[C@H]1OC1CC(OC2CC(OC3CC(C)(O)C(O)C(C)O3)C(O)C(C)O2)C(O)C(C)O1 (some centres not stated),0.097,> 50,0.0592,> 50,0.148,1.18,0.0877,0.355,0.204,4.27,0.109,> 50,0.305,5.4,0.146,1.58,0.192,> 50,
COc1c(N2CCN(CN3C(=O)C(=Nc4ccc(S(=O)(=O)Nc5ncccn5)cc4)c4ccccc43)C(C)C2)c(F)cc2c(=O)c(C(=O)O)cn(C3CC3)c12 (configuration not stated),22.4,> 50,27.5,> 50,0.269,> 50,42.4,> 50,> 50,> 50,> 50,> 50,> 50,> 50,47,> 50,19.2,> 50,
COc1cc(-c2cn(-c3ccc(Cl)cc3)c(C)c2C(=O)C(F)(F)F)cc(OC)c1OC,33.4,> 100,> 100,> 100,> 100,> 100,> 100,> 100,> 100,> 100,> 100,> 100,25.5,> 100,14.1,> 100,> 100,> 100,
S=c1[nH]c2ccc(Br)cc2c(=S)n1-c1ccccc1,,45.2,,85.1,,47.1,,,,78.3,,55.7,,> 100,,36.9,,89.1,> 100
COc1cc[nH]c1/C=C1\C(=O)Nc2ccc(F)c(I)c21,> 25,> 25,> 25,> 25,> 25,> 25,> 25,> 25,> 25,> 25,> 25,> 25,> 25,> 25,> 25,> 25,> 25,> 25,
COc1cccc(C(=O)C2C(=O)N(C)CCc3ccccc32)c1OC (configuration not stated),,> 100,,> 100,,> 100,,> 100,,> 100,,,,> 100,,> 100,,> 100,> 100
COc1cc(CNc2ccc(C(C)C)cc2)cc(OC)c1OC,,26.5,,29.9,,,,14.1,16.3,33.4,,,,65.8,,61.7,,70,48.8
CN(C)C(=S)N=Nc1c(O)[nH]c2ccccc12,0.374,2.49,0.46,13.5,0.356,3.56,1.05,14.5,0.261,1.18,0.315,14.2,0.394,5.59,2.31,17,0.508,7.39,
